SMILES strings stand for the structures.

The text below walks through data of patent publication US8334289B2, “Pyridin-2-one compounds and their use as modulators of the dopamine D3 receptor” (Abbott GmbH & Co. KG, priority 2004, dated 2012).

Assay [1] has as its target T1, human dopamine D2L receptors (long isoform) (Homo sapiens, UniProt P14416).
T1 construct: expressed in transfected cells; host or cells: HEK-293 (membranes)
The assay is described as follows: Dopamine D2L receptor binding, displacement of [125I]-iodospiperone. Conditions: Ki(D2L)/Ki(D3); membranes from HEK-293 cells with human D2L and D3 receptors. Here is the method: (§1) The substance to be tested was dissolved either in methanol/Chremophor® (BASF-AG) or in dimethyl sulfoxide and then diluted with water to the desired concentration.
(§2) Triplicate mixtures were carried out.
The incubation buffer contained 50 mM Tris, 120 mM NaCl, 5 mM KCl, 2 mM CaCl2, 2 mM MgCl2 and 0.1% bovine serum albumin. The buffer was adjusted to pH 7.4 with HCl.
(§3) After incubation at 25° C. for 60 minutes, the mixtures were filtered under vacuum through Whatman GF/B glass fiber filters using a cell harvester. The filters were transferred by a filter transfer system into scintillation vials. After addition of 4 ml of Ultima Gold® (Packard), the samples were shaken for one hour and then the radioactivity was counted in a beta counter (Packard, Tricarb 2000 or 2200CA). The cp values were converted into dpm by means of a standard quench series with the aid of the instrument's own program.
(§4) Evaluation of the inhibition plots took place by iterative nonlinear regression analysis using the Statistical Analysis System (SAS) similar to the “LIGAND” program described by Munson and Rodbard.

The target in assay [2] is T2, human dopamine D3 receptors (Homo sapiens, UniProt P35462).
T2 construct: expressed in transfected cells; host or cells: HEK-293 (membranes)
Kind of assay: Dopamine D3 receptor binding, displacement of [125I]-iodosulpiride. Conditions: membranes from HEK-293 cells stably expressing human D3 receptor; 0.1 nM [125I]-iodosulpiride; 25° C., 60 minutes. Here is the method:
as §1, §2
The incubation buffer contained 50 mM Tris, 120 mM NaCl, 5 mM KCl, 2 mM CaCl2, 2 mM MgCl2 and 0.1% bovine serum albumin, 10 μM quinolone, 0.1% ascorbic acid (prepared fresh each day). The buffer was adjusted to pH 7.4 with HCl.
as §3, §4

T2 sequence (P35462 whole entry): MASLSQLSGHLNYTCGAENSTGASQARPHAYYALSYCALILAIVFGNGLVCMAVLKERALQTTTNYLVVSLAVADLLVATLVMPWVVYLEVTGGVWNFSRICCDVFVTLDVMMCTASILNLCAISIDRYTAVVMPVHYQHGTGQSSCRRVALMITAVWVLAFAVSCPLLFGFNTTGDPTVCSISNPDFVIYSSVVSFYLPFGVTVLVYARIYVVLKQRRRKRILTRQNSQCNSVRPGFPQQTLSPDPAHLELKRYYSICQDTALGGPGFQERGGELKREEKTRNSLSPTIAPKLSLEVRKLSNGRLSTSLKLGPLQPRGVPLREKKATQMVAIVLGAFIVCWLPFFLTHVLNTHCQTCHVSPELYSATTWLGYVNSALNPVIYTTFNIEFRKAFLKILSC
T1 sequence (P14416 whole entry, canonical isoform): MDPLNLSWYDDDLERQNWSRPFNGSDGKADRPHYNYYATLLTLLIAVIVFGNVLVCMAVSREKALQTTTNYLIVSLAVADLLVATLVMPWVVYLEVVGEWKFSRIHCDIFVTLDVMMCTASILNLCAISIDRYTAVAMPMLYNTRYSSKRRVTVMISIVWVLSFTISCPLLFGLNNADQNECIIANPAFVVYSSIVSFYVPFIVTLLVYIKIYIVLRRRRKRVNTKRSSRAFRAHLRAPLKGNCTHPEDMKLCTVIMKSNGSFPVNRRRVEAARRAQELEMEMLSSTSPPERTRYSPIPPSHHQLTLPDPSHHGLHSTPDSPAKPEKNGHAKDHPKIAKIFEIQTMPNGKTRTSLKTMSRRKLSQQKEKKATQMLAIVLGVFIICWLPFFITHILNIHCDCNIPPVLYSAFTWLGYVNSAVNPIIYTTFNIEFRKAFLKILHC

Turning to `CCCc1cc(N2CCN(CCCCn3ccc(C)cc3=O)CC2)nc(C(C)(C)C)n1.Cl` [Example 3, 4-(2-tert-Butyl-6-propylpyrimidin-4-yl)-1-[4-(4-methyl-2-oxopyridin-1(2H)-yl)butyl]piperazin-1-ium chloride], the “Selectivity vs. D2L” value in assay [1] turned out to be 137. Moreover, the Ki in assay [2] is 0.84 nM.
The like results for `CCCc1cc(N2CCN(CCCCn3cccc(OC)c3=O)CC2)nc(C(C)(C)C)n1` [Example 5, 1-{4-[4-(2-tert-Butyl-6-propylpyrimidin-4-yl)piperazin-1-yl]butyl}-3-methoxy-1H-pyridin-2-one] were, in that order, 51 and 1.2 nM.
With `CCCc1cc(N2CCN(CCCCn3cccc(C)c3=O)CC2)nc(C(C)(C)C)n1` [Example 7, 1-{4-[4-(2-tert-Butyl-6-propylpyrimidin-4-yl)piperazin-1-yl]butyl}-3-methyl-1H-pyridin-2-one], the “Selectivity vs. D2L” value in assay [1] turned out to be 129. The molecule further had a Ki in assay [2] of 1.25 nM.
The like results for `Cc1cccn(CCCCN2CCN(c3cc(C(F)(F)F)nc(C(C)(C)C)n3)CC2)c1=O` [Example 11, 1-{4-[4-(2-tert-Butyl-6-trifluoromethylpyrimidin-4-yl)piperazin-1-yl]butyl}-3-methyl-1H-pyridin-2-one] were, in that order, 74 and 2.31 nM.
The like results for `COc1cccn(CCCCN2CCN(c3cc(C(F)(F)F)nc(C(C)(C)C)n3)CC2)c1=O` [Example 6, 1-{4-[4-(2-tert-Butyl-6-trifluoromethylpyrimidin-4-yl)piperazin-1-yl]butyl}-3-methoxy-1H-pyridin-2-one] were, in that order, 74 and 2.2 nM.
